A melting point compilation (Tetko et al.; mined from patent text by program, amines drawn as free bases though some values may be those of a salt)

Row | melting point | SMILES
1 | 251 to 253 °C | O=C1Cc2cc3c(cc2C(c2cccc([N+](=O)[O-])c2)=NN1)OCO3
2 | 99 to 100 °C | COC(=O)C(CCBr)Oc1cc([N+](=O)[O-])cc2c1CCCC2 (configuration not stated)
3 | 135 to 136 °C | CC(C)(C)Oc1ccc(C(=O)NCCCCCCCNC(=O)c2ccc(OC(C)(C)C)cc2)cc1
4 | 110 to 112 °C | O=C(NC(=O)N1CCC(Cc2ccccc2)CC1)c1ccc2[nH]ccc2c1
5 | 145 to 146 °C | CCCCn1c(=O)c2c(ncn2S(=O)(=O)c2cccs2)n(CCCC)c1=O
6 | 174 to 175 °C | CCOC(=O)CCN(CNC(=O)OC(C)(C)C)C(=O)Cn1cc(C)c(=O)[nH]c1=O
7 | 242 to 244 °C | CCCN[C@@H](Cc1ccc(OCCNC(=O)c2ccc(-c3ccccn3)cc2)cc1)C(=O)O
8 | 185 to 187 °C | C#CCNC(=O)c1cccc(-c2ccc3cnc(Nc4ccc(N5CCN(C)CC5)cc4)nn23)c1
9 | 302 to 304 °C | N#Cc1cc2c3ccccc3[nH]c(=O)n2n1
10 | 227 °C | O=Cc1c(Cl)[nH]c2ccccc12
11 | 129 to 131 °C | Cc1ccccc1-c1ccc(C(=O)N2Cc3ccc(C(=O)NCCc4ccc(O)cc4)n3Cc3ccccc32)cc1C
12 | 148 to 150 °C | c1ccc(N(CCCNC2=NC3CCC2CC3)c2ccccc2)cc1
13 | 80 to 85 °C | ClCCCCSc1ccncc1
14 | 109 to 111 °C | COCOc1cccc2c(=O)[nH]c(CCCCN(C)C)cc12
15 | 52 to 54 °C | CN1CCCCc2cc([N+](=O)[O-])ccc21
16 | 127 to 129 °C | CCC(C)(O)c1cc(NC(=O)N2CCN(c3cc(OC)cc(OC)c3)CC2)c(OC)nc1C (configuration not stated)
17 | 198 to 201 °C | CCn1cc(C(=O)O)c(=O)c2cnc(N3CCN(Cc4ccc(N)cc4)CC3)nc21
18 | 268 to 270 °C | c1ccc(C[C@@H]2CN3C(c4nnn[nH]4)=Nc4nc(C5CCCC5)[nH]c4C3=N2)cc1
19 | 121 to 124 °C | Cn1c(=O)nc(NCCCN2CCN(C(c3ccccc3)c3ccccc3)CC2)c2ccccc21
20 | 80 to 100 °C | C[C@H](CO)Nc1nc(SCc2cccc(F)c2F)nc2[nH]c(=O)c(NCc3ccccc3)nc12
21 | 82 to 83 °C | CCC1=CC(Cl)(NC2CCC(C(C(=O)OC)C(=O)OC)CC2)NC=N1 (configuration not stated)
22 | 213 to 215 °C | CC(=O)CNc1ccc(/C=C/C(=O)O)cc1
23 | 142 to 144 °C | CN(C)CCCC1CCCCN1C(=O)N1c2ccccc2C(=O)Nc2cccnc21 (configuration not stated)
24 | 117 to 119 °C | CN1C=C(S(=O)(=O)C(F)(F)F)C(Cl)(c2ccc(Cl)cc2)C1 (configuration not stated)

Row | melting point | SMILES
25 | 279 °C | Cc1cc(C#N)cc(C(=O)Nc2ccc(C#N)cn2)n1
26 | 199 to 200 °C | COC(=O)Nc1nccc(Oc2ccc3c(C(=O)Nc4cccc(C(F)(F)F)c4)cccc3c2)n1
27 | 294 to 297 °C | CC(C)NC1=NS(=O)(=O)c2ccc(C(F)(F)F)cc2N1
28 | 114 to 116 °C | CCOC(=O)c1cnc(CC)nc1NCc1ccc(-c2ccccc2-c2nnn[nH]2)cc1
29 | 221 to 223 °C | COCc1c(OC)cc(Cc2cnc(N)nc2N)cc1OC
30 | > 300 °C | Cc1ccc2c(=O)n3nc(C)cc3[nH]c2n1
31 | 101 to 102 °C | CCCSc1cn(C)cc(-c2cccc(C(F)(F)F)c2)c1=O
32 | 239 to 240 °C | CN1CCN(c2ccc(Nc3nc(N)c(C(=O)c4c(Cl)cc(C(F)(F)F)cc4Cl)s3)cc2)CC1
33 | 90 °C | COc1ccc(C(=O)c2cc(F)cc(F)c2)cc1
34 | 170 to 173 °C | N#CC1=CSCC1Nc1c(Cl)cccc1Cl (configuration not stated)
35 | 133 to 134 °C | COc1cccc(S(=O)(=O)Nc2nccnc2OC)c1
36 | 281 to 284 °C | N#Cc1ccc(N(Cc2ccc3cc(O)ccc3c2)n2cnnc2)cc1
37 | 177 °C | O=C1Nc2ccc(C(c3ccc(Cl)cc3)n3ccnc3)cc2C(c2cccc(Cl)c2)N1 (configuration not stated)
38 | 247 to 248 °C | Nc1nc2cccnc2c2c1nc(CO)n2Cc1cc(-c2ccc(F)cc2)no1
39 | 124 to 131 °C | COc1cc(C(C)C)ccc1C1(O)C(=O)c2ccc(N)c(NC(C)=O)c2C1=O (configuration not stated)
40 | 105 to 106 °C | CNC(=O)C(NC(=O)C(CC(C)C)C(CC(=O)OC)SC(C)=O)C(C)OCc1ccccc1 (configuration not stated)
41 | 209 to 211 °C | CCOC(=O)c1cnn(-c2ccc(OC)cc2)c1N
42 | 247 to 249 °C | CCOC(=O)c1cn2c(n1)c(OCC)nc1cc(Br)c(Br)cc12
43 | 154 to 157 °C | CC(C)(C)c1cc(N(C(=O)C=CC(=O)O)c2ccccc2)cc(C(C)(C)C)c1O
44 | 152 to 153 °C | CC(C)Oc1cc(/C=C/S(=O)(=O)NC(=O)OC(C)(C)C)n(Cc2ccc(Cl)cc2Cl)n1
45 | 131 to 132 °C | CC(C)=CCc1c(O)ccc(C(=O)C=Cc2ccccc2)c1O
46 | 96 to 99 °C | COc1ccc(/C=C(\C#N)c2ccc(C(F)(F)F)cc2)cc1OC1CCCC1
47 | 109 to 111 °C | Cc1ccc(Sc2ccccc2CN(C)C)c([N+](=O)[O-])c1
48 | 66 to 67 °C | COC(=O)CCc1ncc(O)c(C(=O)OC)c1C(=O)OC

Row | melting point | SMILES
49 | 292 to 294 °C | O=c1c2c(Cc3ccccc3C(F)(F)F)n[nH]c2c2cccnc2n1-c1ccccc1
50 | 61 to 62 °C | CCCCCCCCCc1ccc(C(CCCCC(=O)O)SCCC(=O)O)cc1 (configuration not stated)
51 | 244 °C | CC(C)NC(=N)NC1=NC(=O)C(=O)N1c1ccc(Cl)c(Cl)c1
52 | 92 to 95 °C | O=C(O)c1ccc(SC(Cn2ccnc2)c2ccc(C(F)(F)F)cc2)cc1 (configuration not stated)
53 | 178 °C | CC(C)(C)c1cc(C(=O)O)cc(I)c1O
54 | 126 to 127 °C | COC(=O)[C@@H]1CSC(=S)N1CC(C)(C)S
55 | 138 to 140 °C | CCOC(=O)c1c(-c2ccc(Cl)cc2)[nH]c(C(F)(F)F)c1C(F)(F)F
56 | 78 to 80 °C | CCOC(=O)Nn1cccc1C(=O)c1ccccc1F
57 | 95 to 98 °C | O=C(COc1ccc(Cl)cc1)N[C@@H](Cc1ccccc1)C(=O)CSCc1ccco1
58 | 177 to 179 °C | CCCc1c(OCCCS(=O)(=O)c2ccc(C(=O)O)cn2)ccc(C(C)=O)c1O
59 | 110 to 112 °C | CSC1NC(=O)N(C(C)C)C(=O)N1N=C(C)C (configuration not stated)
60 | > 260 °C | COc1cc(OC)c(-c2nc3cccnc3[nH]2)cc1C=CC(=O)c1ccc(S(N)(=O)=O)cc1
61 | 117 to 118 °C | FC(F)(F)c1cccc(CCc2nnc(-c3ccc4ncoc4c3)o2)c1
62 | 301 to 303 °C | CC1CCc2ccc(NC(=O)C(F)(F)F)c3c(=O)c(C(=O)O)cn1c23 (configuration not stated)
63 | 182 to 185 °C | Cn1cccc1C(=O)NN(C(=O)c1ccccc1)C(C)(C)C
64 | 193 to 194 °C | COC(=O)C(C#N)=CC=Cc1cc([N+](=O)[O-])ccc1Cl
65 | 135 to 137 °C | CCCCc1ncc(/C=C/CC(=O)O)n1Cc1ccccc1Cl
66 | 219 to 221 °C | COc1cc(Cc2ccc3nc(N)nc(N)c3c2)cc(OC)c1OC
67 | 210 to 212 °C | CCC(C)(C)c1cc(-c2cc(F)cc(C=C3SC(N4CCOCC4)=NC3=O)c2)ccc1O
68 | 100 °C | C[C@H]1C[C@H](OC(=O)C(C)(C)Oc2ccc(CCNC(=O)c3ccc(Cl)cc3)cc2)CC(C)(C)C1 (relative stereo)
69 | 143 °C | Nc1nc(Nc2cccnc2)sc1C(=O)c1ccc(OC(F)F)cc1
70 | 167 to 169 °C | CC1Cc2cccc(S(N)(=O)=O)c2S1(=O)=O (configuration not stated)

Row | SMILES | melting point
71 | CCC1=NC(=NOC(=O)NC)SC1(C)C | 98 to 100 °C
72 | Cc1cc(OCC2CO2)c2c3c(c(=O)oc2c1)CCCC3 (configuration not stated) | 164 to 165 °C
